Test [1] deals with RPL11-insufficient Lin-Kit+ HSPCs. Kind of test: Erythroid differentiation of Lin-Kit+ HSPCs from tamoxifen-treated RPL11+/lox mice. Type of test: cell-based, mouse. Particulars: SD208; 8 days; three RPL11+/lox mice; without SD208 31.2, 26.4, 18.6%; Fig. 8b. Here is the method:
Cells were counted and assessed for cell surface expression of CD235. b Lin-Kit^+ hematopoietic progenitors were obtained from three mouse embryos expressing tetracycline-inducible shRNA against RPS19 at day E14.5 or three untreated mice, and thee mature RPL11^+/+ or three mature RPL11^+/lox mice treated with tamoxifen for eight weeks. […] Values were expressed as a percentage relative to untreated controls. c, d Intracellular phosphorylation of NLK at […] was determined by capillary electrophoresis using the Peggy SueTM Automated Western blotting platform. […] After counting the total cell population, the ratio of CD235^+ erythroblasts was determined by flow cytometry and number of CD235^+ erythroblasts calculated. This was expressed as a percentage of the average number of erythroid cells present in untreated healthy controls. f NLK phosphorylation was assessed by capillary electrophoresis as above. Bars represent means ± SD with individual data points overlaid. […] Statistics: two-tailed Student's t test, significant *p < 0.05. Also see Supplementary Fig. 8. Source data are provided as a Source Data file. Three mature RPL11^+/lox mice were treated with tamoxifen for eight weeks to induce heterozygous deletion of RPL11. As controls, three different RPL11^+/+ littermates of the same mouse strain were treated with tamoxifen.

Another test deals with T1, NLK (Homo sapiens, UniProt Q9UBE8).
T1 construct: NLK, p38, or ALK5 for in vitro kinase assays were immunopurified from Kp53A1 cells; endogenous in cells; immunoprecipitated with anti-NLK (Abcam AB97642)
T1 sequence (Q9UBE8 1-527): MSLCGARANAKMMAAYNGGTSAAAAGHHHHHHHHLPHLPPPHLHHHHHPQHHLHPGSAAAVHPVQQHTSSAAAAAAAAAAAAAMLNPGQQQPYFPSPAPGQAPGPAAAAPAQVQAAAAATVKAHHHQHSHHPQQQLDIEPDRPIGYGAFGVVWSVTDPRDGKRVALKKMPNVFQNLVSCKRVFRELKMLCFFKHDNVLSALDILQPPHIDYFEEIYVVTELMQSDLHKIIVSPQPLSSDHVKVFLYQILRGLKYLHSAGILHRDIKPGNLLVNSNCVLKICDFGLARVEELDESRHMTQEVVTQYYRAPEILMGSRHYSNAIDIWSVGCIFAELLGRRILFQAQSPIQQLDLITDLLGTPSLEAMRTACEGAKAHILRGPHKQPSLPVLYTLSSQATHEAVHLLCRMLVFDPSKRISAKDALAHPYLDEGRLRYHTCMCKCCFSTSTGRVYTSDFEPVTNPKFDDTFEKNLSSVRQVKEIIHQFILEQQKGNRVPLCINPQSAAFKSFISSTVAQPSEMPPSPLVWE
Kind of test: DiscoveRX kinase profile analysis of SD208, NLK. The test is classed as biochemical. Particulars: kinase profiling, Supplementary Fig. 2a. Here is the method:
Supplementary Fig. 2. SD208 and NLK siRNA are specific. (a) The top 22 hits from DiscoveRX kinase profile analysis of SD208. (b) Human cord blood CD34+ progenitors were transduced shRNA against luciferase (shLuc) or RPS19 (shRPS19) and differentiated in erythroid media in the presence […]
days. Cells were counted and assessed for cell surface expression of CD235. Effective inhibition of p38 activity was assessed by lysis of treated controls and Western blot analysis of pp38. (c) Cord blood CD34+ progenitors were transduced with shRNA against RPS19 and either non-targeting (NT) or 1 of 3 different shRNA sequences against NLK. After sorting, cells were differentiated for 12 days. Lysates were subjected to qRT-PCR to assess NLK expression (Upper) and the number of CD235+ erythroblasts was determined by flow cytometry and is expressed relative to erythroid expansion of control cells (Lower). (d) Kp53A1 cells were untransfected (Unt), transfected with a non-targeting sequence (NT), or siRNA against NLK (siNLK). Phosphorylation status of p38, JNK and ERK was determined by treating transfected Kp53A1 cells EPO prior to Western blot analysis for pp38, pJNK and pERK. Transfected cells were cultured for 48 hours prior to lysis. Lysates were subjected to SDS-PAGE and protein expression of the listed proteins was determined by Western blot analysis. […]

The subject of the next test is p38. Kind of test: DiscoveRX kinase profile analysis of SD208, p38. Type of test: biochemical. Particulars: 10 µM; kinase profiling; Supplementary Fig. 2a.

Several values for one entry are separate records, joined by “and”; a condition that tells them apart may be missing. Equal values may be shown once.

In general, inhibition refers to how much of the control response was suppressed. A higher inhibition goes with a strong effect. Turning to `Fc1ccc(Cl)cc1-c1nc(Nc2ccncc2)c2nccnc2n1` [SD208], the “erythropoiesis, % of controls” value in test [1] was 57.3% and 56.8% and 50.3%. Also, the inhibition at 10 µM against NLK turned out to be 96.8%. The “inhibition of p38 kinase activity” value in the test with p38 amounted to 99.6%.

These data come from paper PMC7334220, “Diamond Blackfan anemia is mediated by hyperactive Nemo-like kinase” (Nature Communications, 2020).
